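48-hour exposure; five concentrations; linearly interpolated endpoints. TGI denotes the concentration required for complete inhibition of growth.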
Tests used:
Assay in all cases: NCI tumour cell line growth inhibition, 48 h
786-0 renal = system: 786-0 renal
A549 NSCLC = system: A549 NSCLC
ACHN renal = system: ACHN renal
CCRF-CEM leukemia = system: CCRF-CEM leukemia
COLO 205 colon = system: COLO 205 colon
DU-145 prostate = system: DU-145 prostate
EKVX NSCLC = system: EKVX NSCLC
HCC-2998 colon = system: HCC-2998 colon
HCT-116 colon = system: HCT-116 colon
HCT-15 colon = system: HCT-15 colon
HL-60(TB) leukemia = system: HL-60(TB) leukemia
HOP-62 NSCLC = system: HOP-62 NSCLC
HOP-92 NSCLC = system: HOP-92 NSCLC
HS 578T breast = system: HS 578T breast
HT29 colon = system: HT29 colon
IGROV1 ovarian = system: IGROV1 ovarian
K-562 leukemia = system: K-562 leukemia
KM12 colon = system: KM12 colon
LOX IMVI melanoma = system: LOX IMVI melanoma
M14 melanoma = system: M14 melanoma
MALME-3M melanoma = system: MALME-3M melanoma
MCF7 breast = system: MCF7 breast
MDA-MB-231 breast = system: MDA-MB-231 breast
MDA-MB-435 = system: MDA-MB-435
MDA-N = system: MDA-N
MOLT-4 leukemia = system: MOLT-4 leukemia
NCI-H23 lung = system: NCI-H23 lung
NCI-H460 lung = system: NCI-H460 lung
NCI/ADR-RES ovarian = system: NCI/ADR-RES ovarian
OVCAR-3 ovarian = system: OVCAR-3 ovarian
OVCAR-4 ovarian = system: OVCAR-4 ovarian
OVCAR-5 ovarian = system: OVCAR-5 ovarian
OVCAR-8 ovarian = system: OVCAR-8 ovarian
PC-3 prostate = system: PC-3 prostate
RPMI-8226 leukemia = system: RPMI-8226 leukemia
SF-268 CNS = system: SF-268 CNS
SF-295 CNS = system: SF-295 CNS
SF-539 CNS = system: SF-539 CNS
SK-MEL-2 melanoma = system: SK-MEL-2 melanoma
SK-MEL-28 melanoma = system: SK-MEL-28 melanoma
SK-MEL-5 melanoma = system: SK-MEL-5 melanoma
SK-OV-3 ovarian = system: SK-OV-3 ovarian
SN12C renal = system: SN12C renal
SNB-75 CNS = system: SNB-75 CNS
SR leukemia = system: SR leukemia
SW-620 colon = system: SW-620 colon
T-47D breast = system: T-47D breast
TK-10 renal = system: TK-10 renal
U251 CNS = system: U251 CNS
UACC-257 melanoma = system: UACC-257 melanoma
UACC-62 melanoma = system: UACC-62 melanoma
UO-31 renal = system: UO-31 renal
A498 renal = system: A498 renal
BT-549 breast = system: BT-549 breast
CAKI-1 renal = system: CAKI-1 renal
NCI-H226 lung = system: NCI-H226 lung
NCI-H522 lung = system: NCI-H522 lung
RXF 393 renal = system: RXF 393 renal
SNB-19 CNS = system: SNB-19 CNS

N#C/C(N)=C(\C#N)N=CN
TGI (786-0 renal): > 100 µM
TGI (A549 NSCLC): > 100 µM
TGI (ACHN renal): > 100 µM
TGI (CCRF-CEM leukemia): > 100 µM
TGI (COLO 205 colon): > 100 µM
TGI (DU-145 prostate): > 100 µM
TGI (EKVX NSCLC): > 100 µM
TGI (HCC-2998 colon): > 100 µM
TGI (HCT-116 colon): > 100 µM
TGI (HCT-15 colon): > 100 µM
TGI (HL-60(TB) leukemia): > 100 µM
TGI (HOP-62 NSCLC): > 100 µM
TGI (HOP-92 NSCLC): > 100 µM
TGI (HS 578T breast): > 100 µM
TGI (HT29 colon): > 100 µM
TGI (IGROV1 ovarian): > 100 µM
TGI (K-562 leukemia): > 100 µM
TGI (KM12 colon): > 100 µM
TGI (LOX IMVI melanoma): > 100 µM
TGI (M14 melanoma): > 100 µM
TGI (MALME-3M melanoma): > 100 µM
TGI (MCF7 breast): > 100 µM
TGI (MDA-MB-231 breast): > 100 µM
TGI (MDA-MB-435): > 100 µM
TGI (MDA-N): > 100 µM
TGI (MOLT-4 leukemia): > 100 µM
TGI (NCI-H23 lung): > 100 µM
TGI (NCI-H460 lung): > 100 µM
TGI (NCI/ADR-RES ovarian): > 100 µM
TGI (OVCAR-3 ovarian): > 100 µM
TGI (OVCAR-4 ovarian): > 100 µM
TGI (OVCAR-5 ovarian): > 100 µM
TGI (OVCAR-8 ovarian): > 100 µM
TGI (PC-3 prostate): > 100 µM
TGI (RPMI-8226 leukemia): > 100 µM
TGI (SF-268 CNS): > 100 µM
TGI (SF-295 CNS): > 100 µM
TGI (SF-539 CNS): > 100 µM
TGI (SK-MEL-2 melanoma): > 100 µM
TGI (SK-MEL-28 melanoma): > 100 µM
TGI (SK-MEL-5 melanoma): > 100 µM
TGI (SK-OV-3 ovarian): > 100 µM
TGI (SN12C renal): > 100 µM
TGI (SNB-75 CNS): > 100 µM
TGI (SR leukemia): > 100 µM
TGI (SW-620 colon): > 100 µM
TGI (T-47D breast): > 100 µM
TGI (TK-10 renal): > 100 µM
TGI (U251 CNS): > 100 µM
TGI (UACC-257 melanoma): > 100 µM
TGI (UACC-62 melanoma): > 100 µM
TGI (UO-31 renal): > 100 µM

COC1(OC)CC(CO)(CNc2nc(N)nc(Cl)c2/C=N\O)C1
TGI (786-0 renal): > 100 µM
TGI (A498 renal): 98.5 µM
TGI (A549 NSCLC): > 100 µM
TGI (ACHN renal): > 100 µM
TGI (BT-549 breast): > 100 µM
TGI (CAKI-1 renal): > 100 µM
TGI (CCRF-CEM leukemia): > 100 µM
TGI (COLO 205 colon): > 100 µM
TGI (DU-145 prostate): > 100 µM
TGI (EKVX NSCLC): > 100 µM
TGI (HCC-2998 colon): > 100 µM
TGI (HCT-116 colon): > 100 µM
TGI (HCT-15 colon): > 100 µM
TGI (HL-60(TB) leukemia): > 100 µM
TGI (HOP-62 NSCLC): > 100 µM
TGI (HOP-92 NSCLC): 89.2 µM
TGI (HS 578T breast): > 100 µM
TGI (HT29 colon): > 100 µM
TGI (IGROV1 ovarian): > 100 µM
TGI (K-562 leukemia): > 100 µM
TGI (KM12 colon): 24.4 µM
TGI (LOX IMVI melanoma): > 100 µM
TGI (MALME-3M melanoma): > 100 µM
TGI (MCF7 breast): > 100 µM
TGI (MDA-MB-231 breast): > 100 µM
TGI (MDA-MB-435): > 100 µM
TGI (MDA-N): > 100 µM
TGI (MOLT-4 leukemia): 85.4 µM
TGI (NCI-H226 lung): > 100 µM
TGI (NCI-H23 lung): > 100 µM
TGI (NCI-H460 lung): > 100 µM
TGI (NCI-H522 lung): > 100 µM
TGI (NCI/ADR-RES ovarian): > 100 µM
TGI (OVCAR-3 ovarian): > 100 µM
TGI (OVCAR-4 ovarian): > 100 µM
TGI (OVCAR-5 ovarian): > 100 µM
TGI (OVCAR-8 ovarian): > 100 µM
TGI (PC-3 prostate): > 100 µM
TGI (RPMI-8226 leukemia): > 100 µM
TGI (RXF 393 renal): > 100 µM
TGI (SF-268 CNS): > 100 µM
TGI (SF-295 CNS): > 100 µM
TGI (SF-539 CNS): > 100 µM
TGI (SK-MEL-28 melanoma): > 100 µM
TGI (SK-MEL-5 melanoma): > 100 µM
TGI (SN12C renal): > 100 µM
TGI (SNB-19 CNS): > 100 µM
TGI (SNB-75 CNS): > 100 µM
TGI (SR leukemia): > 100 µM
TGI (SW-620 colon): > 100 µM
TGI (TK-10 renal): > 100 µM
TGI (U251 CNS): > 100 µM
TGI (UACC-257 melanoma): > 100 µM
TGI (UO-31 renal): > 100 µM

COc1ccc(N2C(=O)c3cc(C)cnc3S2(=O)=O)cc1
TGI (786-0 renal): > 100 µM
TGI (A549 NSCLC): > 100 µM
TGI (ACHN renal): > 100 µM
TGI (BT-549 breast): > 100 µM
TGI (CCRF-CEM leukemia): > 100 µM
TGI (COLO 205 colon): > 100 µM
TGI (DU-145 prostate): > 100 µM
TGI (EKVX NSCLC): > 100 µM
TGI (HCC-2998 colon): > 100 µM
TGI (HCT-116 colon): > 100 µM
TGI (HCT-15 colon): > 100 µM
TGI (HL-60(TB) leukemia): > 100 µM
TGI (HOP-62 NSCLC): > 100 µM
TGI (HOP-92 NSCLC): > 100 µM
TGI (HS 578T breast): > 100 µM
TGI (HT29 colon): > 100 µM
TGI (IGROV1 ovarian): > 100 µM
TGI (K-562 leukemia): > 100 µM
TGI (KM12 colon): > 100 µM
TGI (LOX IMVI melanoma): > 100 µM
TGI (MALME-3M melanoma): > 100 µM
TGI (MDA-MB-231 breast): > 100 µM
TGI (MDA-MB-435): > 100 µM
TGI (MDA-N): > 100 µM
TGI (MOLT-4 leukemia): > 100 µM
TGI (NCI-H226 lung): > 100 µM
TGI (NCI-H23 lung): > 100 µM
TGI (NCI-H460 lung): > 100 µM
TGI (NCI-H522 lung): > 100 µM
TGI (NCI/ADR-RES ovarian): > 100 µM
TGI (OVCAR-3 ovarian): > 100 µM
TGI (OVCAR-4 ovarian): > 100 µM
TGI (OVCAR-5 ovarian): > 100 µM
TGI (OVCAR-8 ovarian): > 100 µM
TGI (PC-3 prostate): > 100 µM
TGI (RPMI-8226 leukemia): > 100 µM
TGI (RXF 393 renal): > 100 µM
TGI (SF-268 CNS): > 100 µM
TGI (SF-295 CNS): > 100 µM
TGI (SK-MEL-2 melanoma): > 100 µM
TGI (SK-MEL-28 melanoma): > 100 µM
TGI (SK-MEL-5 melanoma): > 100 µM
TGI (SK-OV-3 ovarian): > 100 µM
TGI (SN12C renal): > 100 µM
TGI (SNB-19 CNS): > 100 µM
TGI (SNB-75 CNS): > 100 µM
TGI (SR leukemia): > 100 µM
TGI (SW-620 colon): > 100 µM
TGI (TK-10 renal): > 100 µM
TGI (U251 CNS): > 100 µM
TGI (UACC-62 melanoma): > 100 µM
TGI (UO-31 renal): > 100 µM

O=C1O/C(=C(/Br)c2ccc(Cl)c(Cl)c2)c2ccccc21
TGI (786-0 renal): > 10 µM
TGI (A549 NSCLC): > 10 µM
TGI (ACHN renal): > 10 µM
TGI (CAKI-1 renal): > 10 µM
TGI (CCRF-CEM leukemia): > 10 µM
TGI (COLO 205 colon): > 10 µM
TGI (DU-145 prostate): > 10 µM
TGI (EKVX NSCLC): > 10 µM
TGI (HCC-2998 colon): > 10 µM
TGI (HCT-116 colon): > 10 µM
TGI (HCT-15 colon): > 10 µM
TGI (HL-60(TB) leukemia): > 10 µM
TGI (HOP-62 NSCLC): > 10 µM
TGI (HOP-92 NSCLC): > 10 µM
TGI (HS 578T breast): > 10 µM
TGI (HT29 colon): > 10 µM
TGI (IGROV1 ovarian): > 10 µM
TGI (K-562 leukemia): > 10 µM
TGI (KM12 colon): > 10 µM
TGI (LOX IMVI melanoma): > 10 µM
TGI (M14 melanoma): > 10 µM
TGI (MCF7 breast): > 10 µM
TGI (MDA-MB-231 breast): > 10 µM
TGI (MDA-MB-435): > 10 µM
TGI (MDA-N): > 10 µM
TGI (MOLT-4 leukemia): > 10 µM
TGI (NCI-H226 lung): > 10 µM
TGI (NCI-H23 lung): > 10 µM
TGI (NCI-H460 lung): > 10 µM
TGI (NCI-H522 lung): > 10 µM
TGI (NCI/ADR-RES ovarian): > 10 µM
TGI (OVCAR-3 ovarian): > 10 µM
TGI (OVCAR-4 ovarian): > 10 µM
TGI (OVCAR-5 ovarian): > 10 µM
TGI (OVCAR-8 ovarian): > 10 µM
TGI (PC-3 prostate): > 10 µM
TGI (RPMI-8226 leukemia): > 10 µM
TGI (RXF 393 renal): > 10 µM
TGI (SF-268 CNS): > 10 µM
TGI (SF-295 CNS): > 10 µM
TGI (SF-539 CNS): > 10 µM
TGI (SK-MEL-2 melanoma): > 10 µM
TGI (SK-MEL-28 melanoma): > 10 µM
TGI (SK-MEL-5 melanoma): > 10 µM
TGI (SK-OV-3 ovarian): > 10 µM
TGI (SN12C renal): > 10 µM
TGI (SNB-19 CNS): > 10 µM
TGI (SNB-75 CNS): > 10 µM
TGI (SR leukemia): > 10 µM
TGI (SW-620 colon): > 10 µM
TGI (T-47D breast): > 10 µM
TGI (TK-10 renal): > 10 µM
TGI (U251 CNS): > 10 µM
TGI (UACC-257 melanoma): > 10 µM
TGI (UACC-62 melanoma): > 10 µM
TGI (UO-31 renal): > 10 µM
